Literature values as cited in patent US20230263777A1, “STABLE SOLID FORMULATION OF AZILSARTAN OR PHARMACEUTICALLY ACCEPTABLE SALTS THEREOF” (PIRAMAL PHARMA LIMITED, priority 2020, published 2023).

In the case of CCOc1nc2cccc(C(=O)OCc3oc(=O)oc3C)c2n1Cc1ccc(-c2ccccc2-c2noc(=O)[nH]2)cc1 [Azilsartan kamedoxomil, (5-methyl-2-oxo-2H-1,3-dioxol-4-yl)methyl 2-ethoxy-1-({4-[2-(5-oxo-4,5-dihydro-1,2,4-oxadiazol-3-yl)phenyl]phenyl}methyl)-1H-1,3-benzodiazole-7-carboxylate], the Solubility in methanol (methanol) is given as “freely soluble” and the Solubility in water (water) is given as “practically insoluble”.
